Our source for the TGI and GI50 values is PubChem BioAssay (NCI).

Among the test systems are DMS 114 small cell lung; HCT-15 colon; HOP-18 NSCLC; HT29 colon; M19-MEL melanoma; OVCAR-3 ovarian; RPMI-8226 leukemia; XF 498 CNS; 786-0 renal; ACHN renal; HS 578T breast; MDA-MB-231 breast; MDA-N.
What all share (assay): NCI anticancer screen, dose series, 48 h

Each structure is given as a SMILES string.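 Cells were grown in 96-well plates and exposed to each compound for 48 hours at five concentrations; endpoints were interpolated linearly between bracketing concentrations, or set to the highest concentration if not reached. Here, GI50 denotes the concentration required for 50% inhibition of growth. TGI marks complete inhibition of growth.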

As to `CCOC(=O)/C=C/c1c(C)[nH]c(=O)[nH]c1=O`, the TGI in the assay with DMS 114 small cell lung, in the assay on HCT-15 colon, in the assay with HOP-18 NSCLC, in the assay on HT29 colon, in the assay with M19-MEL melanoma and in the assay with OVCAR-3 ovarian was > 250 µM in each case. Also, the TGI in the assay on RPMI-8226 leukemia and in the assay on XF 498 CNS was > 250 µM each time.

Consider `O=C(NN1C(=O)C(Cl)C1c1cccc([N+](=O)[O-])c1)c1ccccc1O` (stereo not given), for which the TGI in the assay on DMS 114 small cell lung, in the assay with HT29 colon, in the assay on M19-MEL melanoma, in the assay with OVCAR-3 ovarian, in the assay on RPMI-8226 leukemia and in the assay on XF 498 CNS was > 100 µM each time.

Turning to `c1ccc2c(c1)NCc1cc3ccccc3nc1O2`, the TGI in the assay with DMS 114 small cell lung, with HCT-15 colon, in the assay with HOP-18 NSCLC, in the assay with HT29 colon, with M19-MEL melanoma and in the assay on OVCAR-3 ovarian was > 100 µM each time. The TGI in the assay with RPMI-8226 leukemia and with XF 498 CNS was > 100 µM each time.

On to `N#[N+]c1c([O-])c2ccccc2c2ccccc12`, for which the TGI in the assay on 786-0 renal, with ACHN renal, in the assay with HCT-15 colon, with HS 578T breast, in the assay on HT29 colon and with MDA-MB-231 breast was > 100 µM in each case. The TGI with MDA-N, with OVCAR-3 ovarian and in the assay with RPMI-8226 leukemia was > 100 µM in each case.

With `O=C1C(CO)=C[C@H](O)[C@H]2O[C@@H]12`, the TGI with DMS 114 small cell lung is 296 µM; with HCT-15 colon, 278 µM; in the assay with HOP-18 NSCLC, > 625 µM; with HT29 colon it was > 625 µM; in the assay with M19-MEL melanoma it was 292 µM; in the assay with OVCAR-3 ovarian, 406 µM. The TGI in the assay with RPMI-8226 leukemia turned out to be 332 µM; in the assay with XF 498 CNS, 359 µM.

`Cc1cn(-c2cccc(NC(=O)c3ccc(C)c(Nc4nccc(-c5cccnc5)n4)c3)c2)cn1`: the GI50 in the assay on ACHN renal was 1.69 µM; with HCT-15 colon, 2.73 µM; in the assay with HS 578T breast it was 1.77 µM; with HT29 colon, 1.98 µM; in the assay with MDA-MB-231 breast it was 1.63 µM; in the assay with OVCAR-3 ovarian it was 1.95 µM. In the assay with RPMI-8226 leukemia, the GI50 was 1.87 µM. For the same compound, the TGI with ACHN renal was determined as 3.17 µM; with HCT-15 colon it was 8.26 µM; in the assay on HS 578T breast it was 5.43 µM; with HT29 colon it was 3.74 µM; with MDA-MB-231 breast, 3.46 µM; in the assay on OVCAR-3 ovarian, 3.84 µM. In addition, in the assay on RPMI-8226 leukemia, the TGI stood at 5.41 µM.

On to `C/C(=N\NC(=S)N1CCC(N2CCCCC2)CC1)c1ccccn1`, for which the TGI was determined as 5.65 µM with ACHN renal; 8.86 µM with DMS 114 small cell lung; 6.13 µM with HCT-15 colon; 14.5 µM in the assay with HOP-18 NSCLC; 31.7 µM with HS 578T breast; 9.88 µM in the assay with HT29 colon. In addition, the TGI is 12.6 µM in the assay with M19-MEL melanoma; 3.57 µM with MDA-MB-231 breast; 5.9 µM in the assay on MDA-N; 13.4 µM in the assay with OVCAR-3 ovarian; > 29.4 µM in the assay on RPMI-8226 leukemia; 19.6 µM with XF 498 CNS.

For the compound `O=c1nc2ccc([N+](=O)[O-])cc2[n+]([O-])[nH]1`, the TGI in the assay on 786-0 renal, in the assay with ACHN renal, in the assay on HCT-15 colon, in the assay with HS 578T breast, in the assay on HT29 colon and in the assay on MDA-MB-231 breast was > 100 µM each time. For the same compound, the TGI in the assay on MDA-N, in the assay with OVCAR-3 ovarian and in the assay with RPMI-8226 leukemia was > 100 µM throughout.

For `CCOC(=O)NC(Nc1cc(Cl)ccc1OC)(C(F)(F)F)C(F)(F)F`, the TGI in the assay on ACHN renal, in the assay with HCT-15 colon, in the assay on HS 578T breast, in the assay with HT29 colon, with MDA-MB-231 breast and with MDA-N was > 100 µM throughout. Moreover, the TGI in the assay on OVCAR-3 ovarian and in the assay on RPMI-8226 leukemia was > 100 µM each time.

Consider `COc1cc(-c2ccc(N=Nc3ccc4c(S(=O)(=O)O)cc(S(=O)(=O)O)c(N)c4c3O)c(OC)c2)ccc1N=Nc1ccc2c(S(=O)(=O)O)cc(S(=O)(=O)O)c(N)c2c1O`, for which the TGI with DMS 114 small cell lung is > 100 µM; with HCT-15 colon it was > 100 µM; in the assay with HOP-18 NSCLC, 98.1 µM; in the assay on HT29 colon it was > 100 µM; in the assay with M19-MEL melanoma, > 100 µM; in the assay on OVCAR-3 ovarian it was > 100 µM. In addition, the TGI with RPMI-8226 leukemia and in the assay with XF 498 CNS was > 100 µM throughout.

Turning to `COc1ccc(C2=[S+]C(c3ccccc3)(c3ccccc3)c3ccccc32)cc1`, the TGI in the assay with 786-0 renal was found to be 34.9 µM; with ACHN renal, 86.1 µM; in the assay with HCT-15 colon, 54.6 µM; in the assay with HS 578T breast, 68 µM; in the assay on HT29 colon, 30.3 µM; in the assay on MDA-MB-231 breast, 61.1 µM. Also, the values for the TGI in the assay with MDA-N, in the assay on OVCAR-3 ovarian and with RPMI-8226 leukemia were 54.5 µM, 43.6 µM and 53.9 µM, respectively.

As to `COc1cccc2c1C(=O)c1c(O)c3c(c(O)c1C2=O)C[C@@](O)(C(=O)COC(=O)c1ccccc1)C[C@@H]3OC1CC(N)C(O)C(C)O1` (stereo not given in full), the GI50 is 0.0925 µM with ACHN renal; 0.451 µM in the assay on HCT-15 colon; 0.102 µM in the assay with HT29 colon; 0.376 µM in the assay with MDA-MB-231 breast; 0.369 µM in the assay with OVCAR-3 ovarian; 0.193 µM in the assay with RPMI-8226 leukemia. The TGI with ACHN renal turned out to be 0.457 µM; in the assay with HCT-15 colon, 1.76 µM; with HT29 colon it was 0.273 µM; in the assay with MDA-MB-231 breast, 1.79 µM; in the assay on OVCAR-3 ovarian, 1.42 µM; with RPMI-8226 leukemia, 0.61 µM.

For `c1ccc2c(c1)c1ccccc1n2Cn1c2ccccc2c2ccccc21`, the TGI in the assay with ACHN renal, in the assay on HCT-15 colon, in the assay with HT29 colon, in the assay with MDA-MB-231 breast, with MDA-N and with OVCAR-3 ovarian was > 100 µM each time. Further, in the assay on RPMI-8226 leukemia, the TGI was > 100 µM.

Turning to `C/C(=N\NC(=O)c1ccc(Cl)cc1)c1nc2ncccc2[nH]1`, the TGI is 55.3 µM with 786-0 renal; 44.7 µM in the assay with ACHN renal; > 100 µM in the assay on HCT-15 colon; 93.5 µM in the assay on HS 578T breast; > 100 µM with HT29 colon; > 100 µM in the assay on MDA-MB-231 breast. In addition, the values for the TGI with MDA-N, with OVCAR-3 ovarian and with RPMI-8226 leukemia were > 100 µM, 81.5 µM and > 100 µM, respectively.

Consider `O=C(N/N=C\c1cccc2ccccc12)Nc1ccccc1`, for which the TGI in the assay with HCT-15 colon, in the assay with HS 578T breast, in the assay with HT29 colon, with MDA-N, with OVCAR-3 ovarian and with RPMI-8226 leukemia was > 100 µM each time.

Turning to `O=c1[nH]c(SCc2cccc([N+](=O)[O-])c2)nc2nc[nH]c12`, the TGI in the assay with 786-0 renal, in the assay with ACHN renal, in the assay on HCT-15 colon, in the assay on HS 578T breast, in the assay with HT29 colon and with MDA-MB-231 breast was > 100 µM each time. Further, the TGI in the assay on MDA-N, in the assay on OVCAR-3 ovarian and in the assay on RPMI-8226 leukemia was > 100 µM each time.

`O=c1oc(-c2ccc(O)cc2)cc2cc(O)ccc12`: the TGI was > 100 µM in the assay on 786-0 renal; > 100 µM with ACHN renal; > 100 µM in the assay on HCT-15 colon; 64 µM in the assay with HS 578T breast; > 100 µM in the assay on OVCAR-3 ovarian; > 100 µM in the assay with RPMI-8226 leukemia.

With `Cc1ccc(Cl)cc1N=NC(=O)NNc1cc(Cl)ccc1C`, the TGI in the assay on HCT-15 colon was 95.4 µM; in the assay with HS 578T breast it was 54.8 µM; in the assay with HT29 colon, 80.6 µM; with MDA-MB-231 breast, 40.3 µM; in the assay with MDA-N, > 100 µM; with OVCAR-3 ovarian, 37 µM. In addition, the TGI in the assay with RPMI-8226 leukemia is > 100 µM.
